According to US10201564B2, “Methods of using inhaled nitric oxide gas for treatment of acute respiratory distress syndrome in children” (Mallinckrodt Hospital Products IP Limited, priority 2014, dated 2019):

System: pediatric subjects with acute hypoxemic respiratory failure (AHRF)
Experiment: Pediatric AHRF study: adverse events, serious adverse events, deaths, discontinuations
Type: in vivo, human
Procedure: This was a prospective, multicenter, randomized, double-blind, placebo-controlled, parallel-group study of the safety and efficacy of inhaled nitric oxide in pediatric subjects with acute hypoxemic respiratory failure (AHRF). The subjects were randomized to receive either 5 ppm inhaled nitric oxide or placebo.
Nitric Oxide for inhalation at 5 ppm was administered continuously into the inspiratory limb of the ventilator circuit in mechanically ventilated subjects using a blinded version of the INOvent® delivery system.
Subjects received 100% treatment gas (nitric oxide 5 ppm or placebo [nitrogen gas]) until Day 28 or extubation, whichever occurred first.
This was a prospective, multicenter, randomized, double-blind, placebo-controlled, Phase III study to assess the effects of nitric oxide for inhalation in the treatment of acute hypoxic respiratory failure (AHRF) in pediatric subjects. The study population consisted of male and female pediatric subjects, aged 44 weeks postconceptional age to 16 years age, who were admitted to the pediatric intensive care unit (PICU) and who required intubation because of AHRF. The inclusion/exclusion criteria are described in the Patients section below.
Standardized ventilatory management and weaning procedures were used. Ventilatory management was used based on an “open lung approach” using positive end-expiratory pressure (PEEP) to increase lung volume and limiting tidal volumes to reduce plateau pressures. Subjects received nitric oxide for inhalation at 5 ppm or placebo (100% Grade 5 nitrogen gas) into the inspiratory limb of the ventilator circuit using a blinded version of the INOvent® delivery system. The subjects were treated until Day 28 or extubation, whichever occurred first. Subjects were assessed daily using a spontaneous breathing trial, according to the institution's standard of care. Arterial blood gases (ABG), ventilator settings, methemoglobin, oxygenation index, systolic blood pressure, diastolic blood pressure, Pediatric Risk of Mortality (PRISM) III score, and subject positioning (prone or supine) were performed/recorded at specified times during the study. Selected centers also performed plasma cytokine assays, bronchoalveolar lavage fluid (BALF) assays, and a 6-month follow-up assessment.

[1] = 5 ppm, relationship to study treatment Suspected

[N]=O [Nitric Oxide, nitric oxide]
Serious adverse event: Hypotension, subjects n (%) [1]: 0 (0.0)
Serious adverse event: Hypoxia, subjects n (%) [1]: 0 (0.0)
Serious adverse event: Intracranial pressure increased, subjects n (%) [1]: 0 (0.0)
Serious adverse event: Multi-organ failure, subjects n (%) [1]: 0 (0.0)
Serious adverse event: Pancreatitis, subjects n (%) [1]: 0 (0.0)
Serious adverse event: Pneumonia, aspergillus, subjects n (%) [1]: 0 (0.0)
Serious adverse event: Pulmonary hemorrhage, subjects n (%) [1]: 0 (0.0)
Serious adverse event: Renal failure, acute, subjects n (%) [1]: 0 (0.0)
Serious adverse event: Renal failure, subjects n (%) [1]: 0 (0.0)
Serious adverse event: Renal impairment, subjects n (%) [1]: 0 (0.0)
Serious adverse event: Respiratory failure, subjects n (%) [1]: 0 (0.0)
Serious adverse event: Sepsis, subjects n (%) [1]: 0 (0.0)
Serious adverse event: Subdural hematoma, subjects n (%) [1]: 0 (0.0)
Serious adverse event: Unevaluable event, subjects n (%) [1]: 0 (0.0)
Abdominal distension (5 ppm, subjects with AE): 0 (0.0) n (%)
Acidosis (5 ppm, subjects with AE): 1 (3.8%) n (%)
Agitation (5 ppm, subjects with AE): 2 (7.7%) n (%)
Anemia (5 ppm, subjects with AE): 1 (3.8%) n (%)
Apnea (5 ppm, subjects with AE): 1 (3.8%) n (%)
Arrhythmia (5 ppm, subjects with AE): 1 (3.8%) n (%)
Ascites (5 ppm, subjects with AE): 1 (3.8%) n (%)
Bacteremia (5 ppm, subjects with AE): 2 (7.7%) n (%)
Bacteria, blood (5 ppm, subjects with AE): 1 (3.8%) n (%)
Bacteria, sputum (5 ppm, subjects with AE): 0 (0.0) n (%)
Bladder distension (5 ppm, subjects with AE): 0 (0.0) n (%)
Brain edema (5 ppm, subjects with AE): 0 (0.0) n (%)
Bronchoalveolar lavage (5 ppm, subjects with AE): 1 (3.8%) n (%)
C-reactive protein increased (5 ppm, subjects with AE): 0 (0.0) n (%)
Cardiac arrest (5 ppm, subjects with AE): 0 (0.0) n (%)
Cerebral artery occlusion (5 ppm, subjects with AE): 0 (0.0) n (%)
Chest tube insertion (5 ppm, subjects with AE): 1 (3.8%) n (%)
Deep vein thrombosis (5 ppm, subjects with AE): 2 (7.7%) n (%)
Device failure (5 ppm, subjects with AE): 0 (0.0) n (%)
Diabetic ketoacidosis (5 ppm, subjects with AE): 0 (0.0) n (%)
Diarrhea (5 ppm, subjects with AE): 0 (0.0) n (%)
Disseminated intravascular coagulation (5 ppm, subjects with AE): 0 (0.0) n (%)
Empyema (5 ppm, subjects with AE): 0 (0.0) n (%)
Feeding disorder (5 ppm, subjects with AE): 0 (0.0) n (%)
Fungemia (5 ppm, subjects with AE): 1 (3.8%) n (%)
Fungus culture positive (5 ppm, subjects with AE): 0 (0.0) n (%)
Fungus urine test positive (5 ppm, subjects with AE): 0 (0.0) n (%)
Gangrene (5 ppm, subjects with AE): 1 (3.8%) n (%)
Gastrointestinal hemorrhage (5 ppm, subjects with AE): 0 (0.0) n (%)
Generalized edema (5 ppm, subjects with AE): 0 (0.0) n (%)
Hematuria (5 ppm, subjects with AE): 0 (0.0) n (%)
Hemoglobinemia (5 ppm, subjects with AE): 1 (3.8%) n (%)
Hemolytic anemia (5 ppm, subjects with AE): 0 (0.0) n (%)
Hemopneumothorax (5 ppm, subjects with AE): 0 (0.0) n (%)
Hemorrhage (5 ppm, subjects with AE): 0 (0.0) n (%)
Hemothorax (5 ppm, subjects with AE): 0 (0.0) n (%)
Hepatic failure (5 ppm, subjects with AE): 0 (0.0) n (%)
Hepatosplenomegaly (5 ppm, subjects with AE): 1 (3.8%) n (%)
Hyperammonemia (5 ppm, subjects with AE): 0 (0.0) n (%)
Hypercalcemia (5 ppm, subjects with AE): 1 (3.8%) n (%)
Hypercapnia (5 ppm, subjects with AE): 0 (0.0) n (%)
Hyperchloremia (5 ppm, subjects with AE): 1 (3.8%) n (%)
Hyperglycemia (5 ppm, subjects with AE): 1 (3.8%) n (%)
Hyperkalemia (5 ppm, subjects with AE): 1 (3.8%) n (%)
Hyperlipidemia (5 ppm, subjects with AE): 0 (0.0) n (%)
Hypernatremia (5 ppm, subjects with AE): 2 (7.7%) n (%)
Hypertension (5 ppm, subjects with AE): 0 (0.0) n (%)
Hypocalcemia (5 ppm, subjects with AE): 1 (3.8%) n (%)
Hypochloremia (5 ppm, subjects with AE): 0 (0.0) n (%)
Hypothermia (5 ppm, subjects with AE): 0 (0.0) n (%)
Hypoxia (5 ppm, subjects with AE): 0 (0.0) n (%)
Intracranial pressure increased (5 ppm, subjects with AE): 0 (0.0) n (%)
Labile blood pressure (5 ppm, subjects with AE): 0 (0.0) n (%)
Leukocytosis (5 ppm, subjects with AE): 1 (3.8%) n (%)
Lung infection, pseudomonal (5 ppm, subjects with AE): 0 (0.0) n (%)
Medical device removal (5 ppm, subjects with AE): 0 (0.0) n (%)
Metabolic acidosis (5 ppm, subjects with AE): 0 (0.0) n (%)
Metabolic alkalosis (5 ppm, subjects with AE): 1 (3.8%) n (%)
Multi-organ failure (5 ppm, subjects with AE): 0 (0.0) n (%)
Ocular icterus (5 ppm, subjects with AE): 0 (0.0) n (%)
Oliguria (5 ppm, subjects with AE): 0 (0.0) n (%)
Oxygen saturation decreased (5 ppm, subjects with AE): 2 (7.7%) n (%)
Pancreatitis (5 ppm, subjects with AE): 0 (0.0) n (%)
Pleural effusion (5 ppm, subjects with AE): 0 (0.0) n (%)
Pneumomediastinum (5 ppm, subjects with AE): 0 (0.0) n (%)
Pneumonia (5 ppm, subjects with AE): 1 (3.8%) n (%)
Pneumonia, aspergillus (5 ppm, subjects with AE): 0 (0.0) n (%)
Pneumonia, staphylococcal (5 ppm, subjects with AE): 1 (3.8%) n (%)
Pruritus (5 ppm, subjects with AE): 0 (0.0) n (%)
Pseudomonal sepsis (5 ppm, subjects with AE): 1 (3.8%) n (%)
Pulmonary hemorrhage (5 ppm, subjects with AE): 0 (0.0) n (%)
Pulmonary hypertension (5 ppm, subjects with AE): 0 (0.0) n (%)
Pyrexia (5 ppm, subjects with AE): 0 (0.0) n (%)
Renal failure (5 ppm, subjects with AE): 1 (3.8%) n (%)
Renal failure, acute (5 ppm, subjects with AE): 0 (0.0) n (%)
Renal impairment (5 ppm, subjects with AE): 0 (0.0) n (%)
Respiratory acidosis (5 ppm, subjects with AE): 0 (0.0) n (%)
Sepsis (5 ppm, subjects with AE): 0 (0.0) n (%)
Skin injury (5 ppm, subjects with AE): 0 (0.0) n (%)
Subdural hematoma (5 ppm, subjects with AE): 0 (0.0) n (%)
Thrombocythemia (5 ppm, subjects with AE): 1 (3.8%) n (%)
Thrombocytopenia (5 ppm, subjects with AE): 0 (0.0) n (%)
Tracheitis (5 ppm, subjects with AE): 2 (7.7%) n (%)
Unevaluable event (5 ppm, subjects with AE): 2 (7.7%) n (%)
Urinary tract infection (5 ppm, subjects with AE): 1 (3.8%) n (%)
Urinary tract infection, fungal (5 ppm, subjects with AE): 1 (3.8%) n (%)
Urine output decreased (5 ppm, subjects with AE): 1 (3.8%) n (%)
White blood cell count increased (5 ppm, subjects with AE): 0 (0.0) n (%)
AE in which death was the outcome, subject 2001A (died after the treatment period): No AE listed in which death was the outcome
AE in which death was the outcome, subject 2007 (donor two): No AE listed in which death was the outcome
relationship of deaths, serious AEs, severe AEs and AEs resulting in discontinuation to study treatment (in words): No death, serious AE, severe AE, or AE resulting in treatment discontinuation was suspected to be related to study treatment
SAE (identification of subjects with serious adverse events) (subject 3003 (person one), nitric oxide group): Bradycardia, hypotension
Action/Reported Outcome of SAE (subject 3003 (person one), nitric oxide group, DC = discontinued treatment): DC/death
